Source: article PMC5365654, “Cyclic Boronates Inhibit All Classes of β-Lactamases” (Antimicrobial Agents and Chemotherapy, 2017)
Read-outs that look alike come from different tables or passages of the source.

Assays:
[1] = biological target: T1, CTX-M-15 (Escherichia coli, UniProt Q9EXV5); assay type: biochemical, E. coli; conditions: CTX-M-15-catalysed hydrolysis of the substrate
T1 construct: hexahistidine (pOPINF, 3C-cleavable) (N, cleaved yes); made in house; host or cells: E. coli BL21(DE3)
Experimental: (§1) 45 Steady-state kinetics studies used a Pherastar FS microplate reader with UV-STAR® 96-well,
(§2) 47 black, µclear® plates (Greiner Bio-One) for FC5 (1). Buffers employed were 100 mM
(§3) 48 phosphate buffer pH 7.5, 0.01% (v/v) Triton X-100 for TEM-1, CTX-M-15 and AmpC, 100 mM
(§4) 49 phosphate buffer pH 7.5, 50 mM sodium bicarbonate, 0.01% Triton X-100 for OXA-23 and
(§5) 51 1 µM ZnSO4, 0.01% Triton X-100 for MBL assays. Reaction progress was monitored at 298 K
(§6) 53 intensity (λex = 380 nm, λem = 480 nm) for FC5 (1). Suitable enzyme concentrations for
(§7) 54 kinetic analysis were determined by monitoring changes in absorbance/fluorescence for
(§8) 55 enzyme concentrations between 20 nM and 20 pM.
(§9) Kinetic constants were determined using the initial rate of hydrolysis with the
(§10) 57 reaction initiated through the addition of enzyme to pre-prepared substrate concentrations.
(§11) 58 Substrate concentrations ranged between 400 µM and 0.4 µM. The Michaelis-Menten
(§12) 59 equation was fitted to data by non-linear regression using GraphPad Prism software to
(§13) 60 calculate the Michaelis-Menten constant and the limiting rate (2).

[2] = biological target: T2, AmpC (Pseudomonas aeruginosa, UniProt P24735); assay type: biochemical; conditions: AmpC-catalysed hydrolysis of the substrate
T2 construct: hexahistidine (pOPINF, 3C-cleavable) (N, cleaved yes); made in house; host or cells: E. coli BL21(DE3)
Experimental: as §1, §2, §3, §4, §5, §6, §7, §8, §9, §10, §11, §12, §13

[3] = biological target: T3, OXA-23 (Acinetobacter baumannii, UniProt Q9L4P2); assay type: biochemical; conditions: OXA-23-catalysed hydrolysis of the substrate
T3 construct: hexahistidine (pOPINF, 3C-cleavable) (N, cleaved yes); made in house; host or cells: E. coli BL21(DE3)
Experimental: as §1, §2, §3, §4, §5, §6, §7, §8, §9, §10, §11, §12, §13

[4] = biological target: T4, OXA-48 (Klebsiella pneumoniae, UniProt Q6XEC0); assay type: biochemical; conditions: OXA-48-catalysed hydrolysis of the substrate
T4 construct: hexahistidine (pOPINF, 3C-cleavable) (N, cleaved yes); made in house; host or cells: E. coli BL21(DE3)
Experimental: as §1, §2, §3, §4, §5, §6, §7, §8, §9, §10, §11, §12, §13

[5] = biological target: BcII (Bacillus cereus, UniProt P04190); experiment: FC5 fluorogenic metallo-β-lactamase inhibition assay, BcII; assay type: biochemical; conditions: FC5 substrate
Excerpt: (§14) To investigate the extent to which cyclic boronates inhibit class C β-lactamases as well as the important class A ESBL and class D carbapenemase targets, we used a fluorogenic assay ([22]) to screen the cyclic boronates, which we have found to inhibit other β-lactamases ([21]), against them. The β-lactamases used for screening included TEM-1 and CTX-M-15 (class A), the metallo-β-lactamase (MBL) from Bacillus cereus (BcII), Verona integron-encoded metallo-β-lactamase 1 (VIM-1) (class B), AmpC from P. aeruginosa (class C), and OXA-23 and OXA-48 (class D), collectively representing all classes of β-lactamase.
(§15) We also screened the cyclic boronates against the model MBL, BcII, and VIM-1 using the FC5-based fluorogenic assay ([22]).
(§16) Inhibition assays were carried out using FC5 as a fluorogenic reporter substrate ([22]). Enzyme concentrations and buffers were the same as those employed in steady-state kinetic studies (see Table S2 in the supplemental material). […] The concentration of FC5 employed was 10 μM for TEM-1 and 5 μM for all other enzymes. […] Data at 0 min of incubation were obtained by addition of enzyme to a premixed solution of inhibitor and substrate. Residual enzyme activity was determined for a range of inhibitor concentrations. Nonlinear regression fitting of IC50 curves was carried out using a three-parameter dose-response curve in GraphPad Prism. Errors in IC50 are expressed as [σ(log IC50)/log IC50)] × IC50.
as §1
(§17) 47 black, µclear® plates (Greiner Bio-One) for FC5 (1). […]
as §5, §6, §7
(§18) 55 enzyme concentrations between 20 nM and 20 pM. […]

[6] = biological target: T5, VIM-1 (Pseudomonas aeruginosa, UniProt A0A0F7KYQ8); experiment: FC5 fluorogenic metallo-β-lactamase inhibition assay, VIM-1; assay type: biochemical; conditions: pH 7.5, FC5 substrate, read-out: IC50, μM (mean ± SD) for VIM-1, pH 7.5
T5 construct: His tag (3C-cleavable) (C, cleaved yes); made in house
Excerpt: as §14, §15, §16, §1, §17, §5, §6, §7, §18

[7] = biological target: T1, CTX-M-15; experiment: FC5 fluorogenic β-lactamase inhibition assay, CTX-M-15; assay type: biochemical; conditions: FC5 substrate
Excerpt: as §14, §16, §1, §2, §3, §4, §5, §6, §7, §8, §9, §10, §11, §12, §13

[8] = biological target: T6, AmpC from P. aeruginosa (Pseudomonas aeruginosa, UniProt P24735); experiment: FC5 fluorogenic β-lactamase inhibition assay, AmpC; assay type: biochemical; conditions: IC50, nM (mean ± SD) for AmpC, FC5 substrate
T6 construct: hexahistidine (pOPINF, 3C-cleavable) (N, cleaved yes); made in house; host or cells: E. coli BL21(DE3)
Excerpt: as §14, §16, §1, §2, §3, §4, §5, §6, §7, §8, §9, §10, §11, §12, §13

[9] = biological target: T3, OXA-23; experiment: FC5 fluorogenic β-lactamase inhibition assay, OXA-23; assay type: biochemical
Excerpt: as §14, §16, §1, §2, §3, §4, §5, §6, §7, §8, §9, §10, §11, §12, §13

[10] = biological target: T4, OXA-48; experiment: FC5 fluorogenic β-lactamase inhibition assay, OXA-48; assay type: biochemical
Excerpt: as §14, §16, §1, §2, §3, §4, §5, §6, §7, §8, §9, §10, §11, §12, §13

T3 sequence (Q9L4P2 18-273): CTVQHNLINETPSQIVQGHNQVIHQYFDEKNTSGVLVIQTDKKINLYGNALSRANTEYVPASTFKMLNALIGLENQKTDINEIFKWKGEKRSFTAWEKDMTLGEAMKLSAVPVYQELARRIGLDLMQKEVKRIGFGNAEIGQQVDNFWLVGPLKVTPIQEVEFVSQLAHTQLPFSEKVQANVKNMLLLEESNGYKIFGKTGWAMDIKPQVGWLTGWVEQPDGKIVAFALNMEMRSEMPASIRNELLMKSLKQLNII
Sequence of BcII (P04190 31-257): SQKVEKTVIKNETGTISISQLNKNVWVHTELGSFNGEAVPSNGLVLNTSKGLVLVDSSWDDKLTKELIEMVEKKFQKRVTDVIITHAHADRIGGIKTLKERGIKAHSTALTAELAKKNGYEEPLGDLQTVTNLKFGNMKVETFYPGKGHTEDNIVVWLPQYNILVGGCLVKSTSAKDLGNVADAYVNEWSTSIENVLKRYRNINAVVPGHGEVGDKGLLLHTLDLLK
T6 sequence (P24735 27-397): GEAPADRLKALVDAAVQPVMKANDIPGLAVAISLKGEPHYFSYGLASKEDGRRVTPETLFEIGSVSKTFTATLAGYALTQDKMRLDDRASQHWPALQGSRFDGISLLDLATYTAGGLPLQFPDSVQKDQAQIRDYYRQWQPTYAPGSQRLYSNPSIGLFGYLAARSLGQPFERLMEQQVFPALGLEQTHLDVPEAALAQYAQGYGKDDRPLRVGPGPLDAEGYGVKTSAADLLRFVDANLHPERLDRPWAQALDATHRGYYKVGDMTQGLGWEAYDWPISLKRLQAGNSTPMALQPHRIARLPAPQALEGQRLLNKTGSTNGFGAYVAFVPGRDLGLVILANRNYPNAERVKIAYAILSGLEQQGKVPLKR
T1 sequence (Q9EXV5 entry or part of it): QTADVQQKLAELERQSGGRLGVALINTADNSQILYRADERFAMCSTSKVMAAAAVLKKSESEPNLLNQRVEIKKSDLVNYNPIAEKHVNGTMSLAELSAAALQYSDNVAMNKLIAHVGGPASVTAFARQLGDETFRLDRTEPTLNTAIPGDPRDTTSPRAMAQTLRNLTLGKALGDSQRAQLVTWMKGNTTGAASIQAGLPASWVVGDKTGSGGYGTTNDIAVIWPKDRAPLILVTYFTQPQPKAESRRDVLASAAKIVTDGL
T4 sequence (Q6XEC0 23-265 limits assumed): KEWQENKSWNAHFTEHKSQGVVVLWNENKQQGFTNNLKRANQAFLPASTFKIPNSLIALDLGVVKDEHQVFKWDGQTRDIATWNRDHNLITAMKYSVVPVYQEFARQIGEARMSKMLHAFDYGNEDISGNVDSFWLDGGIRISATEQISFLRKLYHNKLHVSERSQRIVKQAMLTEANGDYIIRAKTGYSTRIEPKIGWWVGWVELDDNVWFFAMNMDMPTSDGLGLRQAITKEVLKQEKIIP
T2 sequence (P24735 27-397): as the sequence (P24735 27-397) above

O=C(Cc1ccccc1)N[C@@H]1C(=O)N2C(C(=O)O)=C(COc3ccc4ccc(=O)oc4c3)CS(=O)(=O)[C@H]12 [FC5]
Km [1]: 170 ± 20 µM
kcat [1]: 1100 ± 100 s⁻¹
Km [2]: 600 ± 220 µM
kcat [2]: 500 ± 160 s⁻¹
Km [3]: 500 ± 130 µM
kcat [3]: 38 ± 7 s⁻¹
Km [4]: 420 ± 50 µM
kcat [4]: 28 ± 2 s⁻¹

O=C(O)C(S)c1ccccc1 (racemic) [(±)-Thiomandelic acid, thiomandelic acid]
IC50 ([5]; pH 6.5, preincubation 0 min, read-out: IC50, μM (mean ± SD) for BcII, pH 6.5): 0.27 ± 0.06 µM
IC50 ([5]; pH 6.5, preincubation 10 min, read-out: IC50, μM (mean ± SD) for BcII, pH 6.5): 0.9 ± 0.1 µM
IC50 ([5]; pH 6.5, preincubation 30 min, read-out: IC50, μM (mean ± SD) for BcII, pH 6.5): 0.5 ± 0.1 µM
IC50 ([5]; pH 6.5, preincubation 60 min, read-out: IC50, μM (mean ± SD) for BcII, pH 6.5): 2 ± 1 µM
IC50 ([5]; pH 6.5, preincubation 360 min, read-out: IC50, μM (mean ± SD) for BcII, pH 6.5): 2 ± 1 µM
IC50 ([5]; pH 7.5, preincubation 0 min, read-out: IC50, μM (mean ± SD) for BcII, pH 7.5): 0.3 ± 0.03 µM
IC50 ([5]; pH 7.5, preincubation 10 min, read-out: IC50, μM (mean ± SD) for BcII, pH 7.5): 0.39 ± 0.05 µM
IC50 ([5]; pH 7.5, preincubation 30 min, read-out: IC50, μM (mean ± SD) for BcII, pH 7.5): 0.33 ± 0.04 µM
IC50 ([5]; pH 7.5, preincubation 60 min, read-out: IC50, μM (mean ± SD) for BcII, pH 7.5): 0.5 ± 0.2 µM
IC50 ([5]; pH 7.5, preincubation 360 min, read-out: IC50, μM (mean ± SD) for BcII, pH 7.5): 2 ± 1 µM
IC50 ([6]; preincubation 0 min): 0.38 ± 0.03 µM
IC50 ([6]; preincubation 10 min): 0.45 ± 0.02 µM
IC50 ([6]; preincubation 30 min): 0.8 ± 0.9 µM
IC50 ([6]; preincubation 60 min): 1.4 ± 0.9 µM
IC50 ([6]; preincubation 360 min): 2 ± 1 µM

CC1(C)[C@H](C(=O)O)N2C(=O)C[C@H]2S1(=O)=O [Sulbactam, sulbactam]
IC50 ([7]; IC50, nM (mean ± SD) for CTX-M-15, preincubation 0 min): 44 ± 1 nM
IC50 ([7]; IC50, nM (mean ± SD) for CTX-M-15, preincubation 10 min): 29 ± 1 nM
IC50 ([7]; IC50, nM (mean ± SD) for CTX-M-15, preincubation 30 min): 28 ± 7 nM
IC50 ([7]; IC50, nM (mean ± SD) for CTX-M-15, preincubation 60 min): 32 ± 0.3 nM
IC50 ([7]; IC50, nM (mean ± SD) for CTX-M-15, preincubation 360 min): 16.6 ± 0.1 nM
IC50 ([8]; preincubation 0 min): > 200000 nM
IC50 ([8]; preincubation 10 min): 42000 nM
IC50 ([8]; preincubation 30 min): 8600 nM
IC50 ([8]; preincubation 60 min): 4400 nM
IC50 ([8]; preincubation 360 min): 1000 nM
IC50 [9]: > 200000 nM
IC50 ([9]; read-out: IC50, nM (mean ± SD) for OXA-23, preincubation 10 min, FC5 substrate): > 200000 nM
IC50 ([9]; read-out: IC50, nM (mean ± SD) for OXA-23, preincubation 30 min, FC5 substrate): > 200000 nM
IC50 ([9]; read-out: IC50, nM (mean ± SD) for OXA-23, preincubation 60 min, FC5 substrate): > 200000 nM
IC50 ([9]; read-out: IC50, nM (mean ± SD) for OXA-23, preincubation 360 min, FC5 substrate): > 200000 nM
IC50 [10]: > 200000 nM
IC50 ([10]; read-out: IC50, nM (mean ± SD) for OXA-48, preincubation 10 min, FC5 substrate): > 200000 nM
IC50 ([10]; read-out: IC50, nM (mean ± SD) for OXA-48, preincubation 30 min, FC5 substrate): > 200000 nM
IC50 ([10]; read-out: IC50, nM (mean ± SD) for OXA-48, preincubation 60 min, FC5 substrate): > 200000 nM
IC50 ([10]; read-out: IC50, nM (mean ± SD) for OXA-48, preincubation 360 min, FC5 substrate): > 200000 nM
